Measured values reported in US20250049819A1, “METHODS FOR TREATING AND PREVENTING C. DIFFICILE INFECTION” (Paratek Pharmaceuticals, Inc., priority 2016, published 2025).
Values after ≈ are worked out from the molar mass of the structure shown. “Also recorded” adds a separate entry of the source. Where two headings read alike, the source gives them in different places.

Key:
[1] = system: C. difficile strains (N = 27); assay: MIC by broth microdilution against C. difficile clinical isolates; format: cell-based; set-up: Broth Microdilution Range (Minimum Inhibitory Concentration): unit not given here; conditions: 27 isolates; for MIC50 / MIC90: Clostridioides difficile
Protocol: (§1) The activity of omadacycline was tested in vitro against 27 clinical isolates of C. difficile. […] The experiments were carried out using broth and agar microdilution methods according to Clinical and Laboratory Standards Institute (CLSI) guidelines. […] Each test was run in duplicate.

[2] = system: C. difficile strain ATCC 43596; assay: MIC90 against the infection model strain; format: cell-based
[3] = system: C. difficile strains (N = 27); assay: MIC by agar dilution against C. difficile clinical isolates; format: cell-based; conditions: 27 isolates
Protocol: as §1

[4] = system: gut microflora populations; assay: In vitro human gut model, gut microflora populations (Example 4); format: cell-based
Protocol: (§2) The gut model was inoculated with pooled fecal slurry (5 volunteers ≥60 years of age with no history of antibiotic therapy in the previous 3 months) and left for 2 weeks to allow the bacterial populations to achieve steady state. A single inoculum (˜10^7 cfu/mL) of C. difficile spores (PCR ribotype 027 strain 210) was added into vessel 1 of the gut model on day 14. One week later, on day 21, a second aliquot of C. difficile spores was added, and antibiotic instillation commenced. Model A (LHS) was exposed to moxifloxacin (43 mg/L, once daily, for 7 days) and Model B (RHS) was exposed to omadacycline (430 mg/L, once daily, for 7 days) commenced on day 21.
(§3) Bacterial populations in the gut model were monitored using selective agars to count viable bacterial colonies. Populations were monitored every other day for the first 2 weeks until the steady state was reached, and daily thereafter. C. difficile populations were monitored in all three vessels, and all other bacterial groups (total obligate anaerobes, total facultative anaerobes, lactose fermenting Enterobacteriaceae, Enterococci, total Clostridia, Lactobacilli, Bifidobacteria and B. fragilis group) were monitored in vessels 2 and 3 only. Vessel 3, which represents the distal colon, is of most physiological relevance in terms of propensity to induce CDI. C. difficile total viable counts and spores counts were monitored using viable counting and a differential alcohol shock viable count on selective agars. From day 14 onwards C. difficile cytotoxin was measured using a quantitative VERO cell cytotoxicity assay. Samples of 1 mL each were centrifuged at 16,000×g for 15 minutes, and the supernatants were removed. Six 1:10 serial dilutions (to 10^−6) of culture supernatants from the gut model were prepared. Twenty microliters of the appropriate dilution was added to VERO cell monolayers and a further 20 μL of C. sordellii antitoxin (diluted 1:10 in sterile distilled water) was placed in the corresponding antitoxin row. Monolayers were examined after 24 and 48 hours of incubation in 5% CO2, with a positive result indicated by the presence of cell rounding with concurrent neutralization of the effect by C. sordellii antitoxin. Cytotoxin titers (relative units, RU) were an arbitrary log10 scale, and the cytotoxin titer is reported in the highest dilution with >70% cell rounding, i.e. 10^0=1 RU, 10^−1=2 RU, 10^−2=3 RU. Samples were taken daily from day 21 onwards to determine antimicrobial concentrations in the gut model vessels by a bioassay. Concentrations of moxifloxacin were determined using Isosensitest agar with Escherichia coli as the indicator organism. Concentrations of omadacyline were determined using Wilkins Chalgren agar with Kocuria rhizophila as the indicator organism.

[5] = system: C. difficile PCR ribotype 027 strain 210; assay: In vitro human gut model, C. difficile germination, proliferation and toxin production (Example 4); format: cell-based
Protocol: as §2, §3

[6] = system: C. difficile and gut microbiota; conditions: published gut model studies; cited from earlier work
[7] = system: C. difficile strain ATCC 43596; assay: Hamster model of C. difficile-associated diarrhea, survival; format: in vivo
[8] = Wilkins-Chalgren broth, 48 hours anaerobic
[9] = Clostridioides difficile, ATCC43596, replicate plate A, read-out: MIC90 Plate A
[10] = Clostridioides difficile, ATCC43596, replicate plate B, read-out: MIC90 Plate B
[11] = Wilkins-Chalgren broth, 48 hours anaerobic, read-out: Broth Microdilution MIC90
[12] = Clostridioides difficile, ATCC43596, read-out: MIC90
[13] = vessels 2 and 3, once daily for 7 days
[14] = vessel 1, 43 mg/L once daily for 7 days
[15] = vessel 2 and vessel 3, 43 mg/L once daily for 7 days
[16] = oral 50 mg/kg/day for 5 days, N=10

Compound: CO/N=C(\C(=O)N[C@@H]1C(=O)N2C(C(=O)O)=C(COC(C)=O)CS[C@H]12)c1csc(N)n1 [Cefotaxime]
- MIC50 [1, 8]: 64000 µg/mL (≈ 141000 µM)

Compound: CCC[C@@H]1C[C@@H](C(=O)N[C@@H]([C@H]2O[C@H](SC)[C@H](O)[C@@H](O)[C@H]2O)[C@H](C)Cl)N(C)C1 [Clindamycin]
- MIC90 [2]: no activity
- MIC90 [2, 9]: > 32 µg/mL
- MIC90 [2, 10]: > 32 µg/mL
- MIC50 [1, 8]: 4000 µg/mL (≈ 9410 µM)
- MIC90 [1, 11]: > 16000 µg/mL

Compound: C[C@H]1c2cccc(O)c2C(=O)C2=C(O)[C@]3(O)C(=O)C(C(N)=O)=C(O)[C@@H](N(C)C)[C@@H]3[C@@H](O)[C@@H]21 [Doxycycline]
- MIC90 ([1]; read-out: MIC90 by broth dilution): 0.5 µg/mL (≈ 1.13 µM)
- MIC50 [1, 8]: 30 µg/mL (≈ 67.5 µM)
- MIC90 [1, 11]: 500 µg/mL (≈ 1130 µM)
- MIC90 ([3]; Clostridioides difficile): 1 µg/mL (≈ 2.25 µM)

Compound: C[C@@H](O)[C@H]1C(=O)N2C(C(=O)O)=C(SCCN=CN)C[C@H]12 [Imipenem]
- MIC50 [1, 8]: 4000 µg/mL (≈ 13400 µM)
- MIC90 [1, 11]: 8000 µg/mL (≈ 26700 µM)

Compound: Cc1ncc([N+](=O)[O-])n1CCO [Metronidazole]
- MIC90 [2, 12]: 0.06 µg/mL (≈ 0.351 µM)
- MIC90 [2, 9]: 0.06 µg/mL (≈ 0.351 µM)
- MIC90 [2, 10]: 0.06 µg/mL (≈ 0.351 µM)
- MIC50 [1, 8]: 120 µg/mL (≈ 701 µM)
- MIC90 [1, 11]: 500 µg/mL (≈ 2920 µM)
- Agar Microdilution Range (Minimum Inhibitory Concentration) ([3]; agar dilution): 0.06 to 0.5 mg/mL

Compound: COc1c(N2C[C@@H]3CCCN[C@@H]3C2)c(F)cc2c(=O)c(C(=O)O)cn(C3CC3)c12 [Moxifloxacin]
- time for all populations to return to pre-antibiotic levels following end of antibiotic exposure ([4]; all populations): ~1 week
- decline in B. fragilis group populations, vessel 2 ([4]; vessel 2, 43 mg/L once daily for 7 days): ~8 log10 cfu/mL
- decline in B. fragilis group populations, vessel 3 ([4]; vessel 3, 43 mg/L once daily for 7 days): ~4 log10 cfu/mL
- decline in Enterococcus spp. / Enterococci populations [4, 13]: ~4 log10 cfu/mL
- decline in Lactobacilli [4, 13]: ~3 log10 cfu/mL
- C. difficile toxin detection (VERO cell cytotoxicity assay) ([5]; all vessels): toxin detected in all three vessels
- day by which toxin was undetectable in all vessels ([5]; all vessels): ≤ 42 days
- signs of simulated CDI ([5]; once daily for 7 days, omadacycline 430 mg/L, moxifloxacin 43 mg/L): induced simulated CDI
- peak C. difficile cytotoxin titer, vessel 1 [5, 14]: 2 relative units
- peak C. difficile total viable counts, vessel 1 [5, 14]: ~4.5 log10 cfu/mL
- peak C. difficile cytotoxin titer, vessel 2 and vessel 3 [5, 15]: 3 relative units
- peak C. difficile total viable counts, vessel 2 and vessel 3 [5, 15]: ~6 log10 cfu/mL

Compound: CN(C)c1cc(NC(=O)CNC(C)(C)C)c(O)c2c1C[C@H]1C[C@H]3[C@H](N(C)C)C(O)=C(C(N)=O)C(=O)[C@@]3(O)C(O)=C1C2=O [Tigecycline]
- MIC90 ([2]; Clostridioides difficile, ATCC43596): 0.06 µg/mL (≈ 0.102 µM)
- MIC90 ([2]; Clostridioides difficile, ATCC43596, read-out: MIC90 Plate A): 0.06 µg/mL (≈ 0.102 µM)
- MIC90 ([2]; Clostridioides difficile, ATCC43596, read-out: MIC90 Plate B): 0.06 µg/mL (≈ 0.102 µM)
- induction of simulated CDI (C. difficile germination and toxin production) in the gut model [6]: do not promote C. difficile germination and toxin production; also recorded: have not induced simulated CDI in the gut model

Compound: CN[C@H](CC(C)C)C(=O)N[C@H]1C(=O)N[C@@H](CC(N)=O)C(=O)N[C@H]2C(=O)N[C@H]3C(=O)N[C@H](C(=O)N[C@H](C(=O)O)c4cc(O)cc(O)c4-c4cc3ccc4O)[C@H](O)c3ccc(c(Cl)c3)Oc3cc2cc(c3O[C@@H]2O[C@H](CO)[C@@H](O)[C@H](O)[C@H]2O[C@H]2C[C@](C)(N)[C@H](O)[C@H](C)O2)Oc2ccc(cc2Cl)[C@H]1O [Vancomycin]
- MIC90 [2, 12]: 0.06 µg/mL (≈ 0.0414 µM)
- MIC90 [2, 9]: 0.06 µg/mL (≈ 0.0414 µM)
- MIC90 [2, 10]: 0.06 µg/mL (≈ 0.0414 µM)
- Median Survival ([7]; hamster, in vivo): 2 days
- percent survival at day 2 post infection ([7]; hamster, in vivo): 40%
- percent survival by day 11 [7, 16]: 30%
- survival by day 14 [7, 16]: all animals succumbed to the infection

Compound: amoxicillin clavulanate
- Broth Microdilution MIC50 [1, 8]: 250 µg/mL
- Broth Microdilution MIC90 [1, 8]: 500 µg/mL
- Broth Microdilution Range (Minimum Inhibitory Concentration) [1, 8]: 0.12-0.5
- Agar Microdilution MIC50 ([3]; agar dilution): 50 µg/mL
- Agar Microdilution MIC90 ([3]; agar dilution): 1000 µg/mL
- Agar Microdilution Range (Minimum Inhibitory Concentration) ([3]; agar dilution): 0.25-1

Compound: piperacillin-tazobactam
- induction of simulated CDI (C. difficile germination and toxin production) in the gut model [6]: do not promote C. difficile germination and toxin production; also recorded: have not induced simulated CDI in the gut model
